Laboratory results: patent USRE46630E1, “Substituted 4-pyridones and their use as inhibitors of neutrophil elastase activity” (Boehringer Ingelheim International GmbH, priority 2012, dated 2017)

Target: T1, Human neutrophil elastase (Homo sapiens, UniProt P08246)
T1 construct: purchased Calbiochem 324681
T1 sequence (P08246 30-267): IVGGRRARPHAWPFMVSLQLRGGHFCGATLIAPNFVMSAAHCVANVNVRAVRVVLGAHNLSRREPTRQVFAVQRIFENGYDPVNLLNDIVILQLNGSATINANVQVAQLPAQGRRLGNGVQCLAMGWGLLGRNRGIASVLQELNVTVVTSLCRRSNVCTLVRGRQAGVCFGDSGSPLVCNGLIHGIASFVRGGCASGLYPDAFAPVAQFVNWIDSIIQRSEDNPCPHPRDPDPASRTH
Assay: Human Neutrophil Elastase Assay
Assay type: biochemical
Details: Neutrophil Elastase assay; substrate MeOSuc-Ala-Ala-Pro-Val-AMC 250 μM; 15 min preincubation, 60 min incubation at room temperature; pH 7.5
Protocol: Human Neutrophil Elastase Assay
All other materials were of the highest grade commercially available.
The following buffers were used: Compound buffer: 100 mM Tris, 500 mM NaCl, adjusted to pH 7.5; Assay buffer: 100 mM Tris, 500 mM NaCl, adjusted to pH 7.5, containing 0.01% BSA.
Assay conditions: Test compounds were prediluted in DMSO and subsequently in compound buffer (5% DMSO final). […] After inactivation of the enzyme, fluorescence intensities were measured at 380 nm excitation and 460 nm emission wavelengths.
Each plate contains wells with a high value control (DMSO+enzyme+substrate) and wells with a low value control (DMSO+inactivated enzyme+substrate). […] Means of low values were taken as 0%, means of high values as 100%.

SMILES | IC50
CNC(=O)c1cn(C(C)c2ccc(C#N)cc2)c(C)c(-c2cccc(C(F)F)c2)c1=O (single isomer, unassigned) [Example 8A] | 1.2 nM
CNC(=O)c1cn(C(C)c2ccc(C#N)cc2)c(C)c(-c2cccc(C(F)F)c2)c1=O (single isomer, unassigned) [Example 8B] | 522 nM
CNC(=O)c1cn(C(C)c2ccc(C#N)cc2)c(C)c(-c2ccnc(C(F)(F)F)c2)c1=O (single isomer, unassigned) [Example 9A] | 3.7 nM
CNC(=O)c1cn(C(C)c2ccc(C#N)cc2)c(C)c(-c2ccnc(C(F)(F)F)c2)c1=O (single isomer, unassigned) [Example 9B] | 1510 nM
CCNC(=O)c1cn(C(C)c2ccc(C#N)cc2)c(C)c(-c2cccc(C(F)(F)F)c2)c1=O (single isomer, unassigned) [Example 10A] | < 1 nM
CCNC(=O)c1cn(C(C)c2ccc(C#N)cc2)c(C)c(-c2cccc(C(F)(F)F)c2)c1=O (single isomer, unassigned) [Example 10B] | 290 nM
Cc1c(-c2cccc(C(F)F)c2)c(=O)c(C(=O)NCc2ccc(S(C)(=O)=O)cc2)cn1C(C)c1ccc(C#N)cc1 (single isomer, unassigned) [Example 11A] | < 1 nM
Cc1c(-c2cccc(C(F)F)c2)c(=O)c(C(=O)NCc2ccc(S(C)(=O)=O)cc2)cn1C(C)c1ccc(C#N)cc1 (single isomer, unassigned) [Example 11B] | 19.5 nM
CNC(=O)c1cn(C(C)c2ccc(C#N)cn2)c(C)c(-c2cccc(C(F)(F)F)c2)c1=O (single isomer, unassigned) [Example 15B] | 67.8 nM
CNC(=O)c1cn(C(C)c2ccc(C#N)cn2)c(C)c(-c2cccc(C(F)F)c2)c1=O (single isomer, unassigned) [Example 16A] | 4.2 nM
CNC(=O)c1cn(C(C)c2ccc(C#N)cn2)c(C)c(-c2cccc(C(F)F)c2)c1=O (single isomer, unassigned) [Example 16B] | 372 nM
CNC(=O)c1cn(C(C)c2ccc(C#N)cc2)c(C)c(-c2cccc(CF)c2)c1=O (single isomer, unassigned) [Example 31B] | 4.2 nM
Cc1c(-c2cccc(C(F)(F)F)c2)c(=O)c(C(=O)NCCO)cn1Cc1ccc(C#N)cc1 [Example 1.1, 1-(4-Cyano-benzyl)-6-methyl-4-oxo-5-(3-trifluoromethyl-phenyl)-1,4-dihydro-pyridine-3-carboxylic acid (2-hydroxy-ethyl)-amide] | 15.2 nM
Cc1c(-c2cccc(C(F)(F)F)c2)c(=O)c(C(=O)NCC2CCN(C)CC2)cn1Cc1ccc(C#N)cc1 [Example 1.2] | 48.3 nM
COCCCNC(=O)c1cn(Cc2ccc(C#N)cc2)c(C)c(-c2cccc(C(F)(F)F)c2)c1=O [Example 1.3] | 13 nM
Cc1c(-c2cccc(C(F)(F)F)c2)c(=O)c(C(=O)NCCCN(C)C)cn1Cc1ccc(C#N)cc1 [Example 1.4] | 27.6 nM
COCCNC(=O)c1cn(Cc2ccc(C#N)cc2)c(C)c(-c2cccc(C(F)(F)F)c2)c1=O [Example 1.5] | 10.4 nM
Cc1c(-c2cccc(C(F)(F)F)c2)c(=O)c(C(=O)NCCN(C)C)cn1Cc1ccc(C#N)cc1 [Example 1.6] | 30.5 nM
Cc1c(-c2cccc(C(F)(F)F)c2)c(=O)c(C(=O)NCC2CCN(C(=O)CN(C)C)CC2)cn1Cc1ccc(C#N)cc1 [Example 1.7] | 15.8 nM
Cc1c(-c2cccc(C(F)(F)F)c2)c(=O)c(C(=O)NCC2(O)CCN(C)CC2)cn1Cc1ccc(C#N)cc1 [Example 1.8] | 83 nM

SMILES | IC50
Cc1c(-c2cccc(C(F)(F)F)c2)c(=O)c(C(=O)NCCCO)cn1Cc1ccc(C#N)cc1 [Example 1.9] | 8.4 nM
Cc1c(-c2cccc(C(F)(F)F)c2)c(=O)c(C(=O)NCc2ccc([S+](C)[O-])cc2)cn1Cc1ccc(C#N)cc1 (stereo not shown) [Example 1.10] | 1.1 nM
CNC(=O)c1cn(Cc2ccc(C#N)cc2)c(C)c(-c2cccc(C(F)(F)F)c2)c1=O [Example 1.11] | 14.4 nM
Cc1c(-c2cccc(C(F)(F)F)c2)c(=O)c(C(=O)NC2CNC(=O)C2)cn1Cc1ccc(C#N)cc1 (stereo not shown) [Example 1.12] | 12.1 nM
Cc1c(-c2cccc(C(F)(F)F)c2)c(=O)c(C(=O)NCC[S+](C)[O-])cn1Cc1ccc(C#N)cc1 (stereo not shown) [Example 1.13] | 6.6 nM
Cc1c(-c2cccc(C(F)(F)F)c2)c(=O)c(C(=O)NCc2ccnnc2)cn1Cc1ccc(C#N)cc1 [Example 1.14] | 1.8 nM
Cc1nnc(CNC(=O)c2cn(Cc3ccc(C#N)cc3)c(C)c(-c3cccc(C(F)(F)F)c3)c2=O)o1 [Example 1.15] | 7.9 nM
Cc1c(-c2cccc(C(F)(F)F)c2)c(=O)c(C(=O)NCCCS(C)(=O)=O)cn1Cc1ccc(C#N)cc1 [Example 1.16] | 7.4 nM
Cc1c(-c2cccc(C(F)(F)F)c2)c(=O)c(C(=O)NCC(O)CO)cn1Cc1ccc(C#N)cc1 (stereo not shown) [Example 1.17, 1-(4-Cyano-benzyl)-6-methyl-4-oxo-5-(3-trifluoromethyl-phenyl)-1,4-dihydro-pyridine-3-carboxylic acid (2,3-dihydroxy-propyl)-amide] | 21 nM
CCCNC(=O)c1cn(Cc2ccc(C#N)cc2)c(C)c(-c2cccc(C(F)(F)F)c2)c1=O [Example 1.18] | 23.8 nM
Cc1c(-c2cccc(C(F)(F)F)c2)c(=O)c(C(=O)NC(CO)CO)cn1Cc1ccc(C#N)cc1 [Example 1.19] | 48.1 nM
Cc1c(-c2cccc(C(F)(F)F)c2)c(=O)c(C(=O)NCCCCO)cn1Cc1ccc(C#N)cc1 [Example 1.20] | 10.6 nM
Cc1c(-c2cccc(C(F)(F)F)c2)c(=O)c(C(=O)NCCN2CCNC2=O)cn1Cc1ccc(C#N)cc1 [Example 1.21] | 14.4 nM
Cc1c(-c2cccc(C(F)(F)F)c2)c(=O)c(C(=O)NC(C)CO)cn1Cc1ccc(C#N)cc1 (stereo not shown) [Example 1.22] | 44.6 nM
Cc1c(-c2cccc(C(F)(F)F)c2)c(=O)c(C(=O)NCC(C)O)cn1Cc1ccc(C#N)cc1 (stereo not shown) [Example 1.23] | 19 nM
CCOCCNC(=O)c1cn(Cc2ccc(C#N)cc2)c(C)c(-c2cccc(C(F)(F)F)c2)c1=O [Example 1.24] | 10 nM
Cc1c(-c2cccc(C(F)(F)F)c2)c(=O)c(C(=O)NCCOCCOCCO)cn1Cc1ccc(C#N)cc1 [Example 1.25] | 10.9 nM
Cc1c(-c2cccc(C(F)(F)F)c2)c(=O)c(C(=O)NCc2cnn(C)c2)cn1Cc1ccc(C#N)cc1 [Example 1.26] | 13.2 nM
Cc1c(-c2cccc(C(F)(F)F)c2)c(=O)c(C(=O)N[C@H]2CC[C@H](O)CC2)cn1Cc1ccc(C#N)cc1 [Example 1.27] | 46.4 nM
Cc1c(-c2cccc(C(F)(F)F)c2)c(=O)c(C(=O)NCCN2CCCC2=O)cn1Cc1ccc(C#N)cc1 [Example 1.28] | 21.8 nM

SMILES | IC50
Cc1c(-c2cccc(C(F)(F)F)c2)c(=O)c(C(=O)NC2CCOCC2)cn1Cc1ccc(C#N)cc1 [Example 1.29] | 31.6 nM
Cc1c(-c2cccc(C(F)(F)F)c2)c(=O)c(C(=O)NCCn2cccn2)cn1Cc1ccc(C#N)cc1 [Example 1.30] | 17.1 nM
Cc1c(-c2cccc(C(F)(F)F)c2)c(=O)c(C(=O)NCc2cn(C)cn2)cn1Cc1ccc(C#N)cc1 [Example 1.31] | 13.7 nM
Cc1c(-c2cccc(C(F)(F)F)c2)c(=O)c(C(=O)NCc2cncn2C)cn1Cc1ccc(C#N)cc1 [Example 1.32] | 23 nM
Cc1c(-c2cccc(C(F)(F)F)c2)c(=O)c(C(=O)NCc2ccnn2C)cn1Cc1ccc(C#N)cc1 [Example 1.33] | 3.7 nM
Cc1c(-c2cccc(C(F)(F)F)c2)c(=O)c(C(=O)NCc2ccn(C)n2)cn1Cc1ccc(C#N)cc1 [Example 1.34] | 8.9 nM
Cc1c(-c2cccc(C(F)(F)F)c2)c(=O)c(C(=O)NCC2COCCO2)cn1Cc1ccc(C#N)cc1 (stereo not shown) [Example 1.35] | 31.4 nM
Cc1c(-c2cccc(C(F)(F)F)c2)c(=O)c(C(=O)N[C@H]2CCC(=O)N(C)C2)cn1Cc1ccc(C#N)cc1 [Example 1.36] | 47.1 nM
Cc1c(-c2cccc(C(F)(F)F)c2)c(=O)c(C(=O)NC2CCOC2)cn1Cc1ccc(C#N)cc1 (stereo not shown) [Example 1.37] | 95.7 nM
Cc1c(-c2cccc(C(F)(F)F)c2)c(=O)c(C(=O)NC2COC2)cn1Cc1ccc(C#N)cc1 [Example 1.38] | 36.9 nM
Cc1c(-c2cccc(C(F)(F)F)c2)c(=O)c(C(=O)NC2CCNC2=O)cn1Cc1ccc(C#N)cc1 (stereo not shown) [Example 1.39] | 6.2 nM
Cc1c(-c2cccc(C(F)(F)F)c2)c(=O)c(C(=O)NCc2cccc(=O)[nH]2)cn1Cc1ccc(C#N)cc1 [Example 1.40] | 2.1 nM
Cc1c(-c2cccc(C(F)(F)F)c2)c(=O)c(C(=O)NCc2cccnn2)cn1Cc1ccc(C#N)cc1 [Example 1.41] | 3.2 nM
Cc1c(-c2cccc(C(F)(F)F)c2)c(=O)c(C(=O)NCc2ccc(=O)[nH]c2)cn1Cc1ccc(C#N)cc1 [Example 1.42] | 5.2 nM
Cc1c(-c2cccc(C(F)(F)F)c2)c(=O)c(C(=O)NCCc2ccccn2)cn1Cc1ccc(C#N)cc1 [Example 1.43] | 8.9 nM
Cc1c(-c2cccc(C(F)(F)F)c2)c(=O)c(C(=O)NCCc2cccnc2)cn1Cc1ccc(C#N)cc1 [Example 1.44] | 7.9 nM
Cc1c(-c2cccc(C(F)(F)F)c2)c(=O)c(C(=O)NCCc2ccncc2)cn1Cc1ccc(C#N)cc1 [Example 1.45] | 7.6 nM
Cc1c(-c2cccc(C(F)(F)F)c2)c(=O)c(C(=O)NCc2cccnc2)cn1Cc1ccc(C#N)cc1 [Example 1.46] | 5.9 nM
